As usually defined, the MIC is the lowest concentration found to suppress growth. Low values mean inhibition by little substance, high ones a need for much substance.

The subject of series [1] is Staphylococcus aureus. Briefly: Antibacterial activity against rifampicin resistant Staphylococcus aureus incubated for 18 hrs by broth microdilution method. It counts as functional.
Series [2] in a line: Toxicity in BALB/c mouse infected with Staphylococcus aureus 794 assessed as hyperkeratosis at 1 mg/ml, ip pre-infected with bacteria for 24 hrs followed by compound addition and measured after 13 days by H and E staining based histopathological analysis. The format is organism-based. As to conditions: in vivo, 312 h, time 13 day.
Series [3] can be described thus: Toxicity in BALB/c mouse infected with Staphylococcus aureus 794 assessed as inflammatory cell infiltration at 1 mg/ml, ip pre-infected with bacteria for 24 hrs followed by compound addition and measured after 13 days by H and E staining based histopathological analysis. As to conditions: in vivo, 312 h, time 13 day. It counts as organism-based.
The test system of series [4] is Staphylococcus aureus. Put plainly: Antibacterial activity against methicillin resistant Staphylococcus aureus incubated for 18 hrs by broth microdilution method. The format is functional.
Series [5] relates to Staphylococcus aureus. Put plainly: Antibacterial activity against Staphylococcus aureus S125 incubated for 18 hrs by broth microdilution method. The format is functional.
A short description of series [6]: Toxicity in BALB/c mouse infected with Staphylococcus aureus 794 assessed as cell necrosis at 1 mg/ml, ip pre-infected with bacteria for 24 hrs followed by compound addition and measured after 13 days by H and E staining based histopathological analysis. As to conditions: in vivo, 312 h, time 13 day. The format is organism-based.
Series [7] concerns Escherichia coli. Put plainly: Antibacterial activity against rifampicin resistant Escherichia coli incubated for 18 hrs by broth microdilution method. It counts as functional.
For series [8], the system named is Staphylococcus aureus. Put plainly: Antibacterial activity against kanamycin resistant Staphylococcus aureus incubated for 18 hrs by broth microdilution method. It counts as functional.
Series [9] concerns Escherichia coli. Put plainly: Antibacterial activity against Escherichia coli incubated for 18 hrs by broth microdilution method. It counts as functional. A general note: Broth dilution looks for growth in wells or tubes with falling amounts of substance.
Series [10] concerns Staphylococcus aureus. Briefly: Antibacterial activity against Staphylococcus aureus 794 infected in BALB/c mouse skin wound infection model assessed as wound healing by measuring thickened scab at 1 mg/ml, ip pre-infected with bacteria for 24 hrs followed by compound addition and measured on day 9. As to conditions: time 9.0 day. It counts as functional, organism-based.
In series [11] the test system is Staphylococcus aureus. Put plainly: Antibacterial activity against Staphylococcus aureus 794 infected in BALB/c mouse skin wound infection model assessed as reduction in TNFalpha level at 1 mg/ml, ip pre-infected with bacteria for 24 hrs followed by compound addition and measured after 13 days post infection. As to conditions: time 12.0 day. The format is functional, organism-based.

Series [12] has as its system Staphylococcus aureus. Put plainly: Antibacterial activity against methicillin resistant Staphylococcus aureus 75 incubated for 18 hrs by broth microdilution method. The format is functional.
Series [13] deals with Staphylococcus aureus. Briefly: Antibacterial activity against Staphylococcus aureus 794 infected in BALB/c mouse skin wound infection model assessed as wound healing at 1 mg/ml, ip pre-infected with bacteria for 24 hrs followed by compound addition and measured after 13 days post infection. As to conditions: time 12.0 day. The format is functional, organism-based.
The subject of series [14] is Staphylococcus aureus. Briefly: Antibacterial activity against Staphylococcus aureus incubated for 18 hrs by broth microdilution method. The format is functional.
In series [15] the test system is Staphylococcus aureus. Put plainly: Antibacterial activity against Staphylococcus aureus 794 infected in BALB/c mouse skin wound infection model assessed as wound healing at 1 mg/ml, ip pre-infected with bacteria for 24 hrs followed by compound addition and measured on day 11. The format is functional. The conditions noted are these: time 11.0 day.
In series [16] the test system is Staphylococcus aureus. Put plainly: Antibacterial activity against Staphylococcus aureus ATCC 25923 infected in BALB/c mouse skin wound infection model assessed as reduction in wound bacterial load at 1 mg/ml, ip administered at 1 hr interval for total 6 treatment and measured after 1 hr post last dose. The format is functional, organism-based. The conditions noted are these: time 7.0 hrs.

Series [17] has as its system Staphylococcus aureus. Briefly: Antibacterial activity against Staphylococcus aureus S794 incubated for 18 hrs by broth microdilution method. The format is functional.
For series [18], the system named is Escherichia coli. Put plainly: Antibacterial activity against kanamycin resistant Escherichia coli incubated for 18 hrs by broth microdilution method. The format is functional.
Series [19] deals with Staphylococcus aureus. Briefly: Antibacterial activity against methicillin resistant Staphylococcus aureus 113 incubated for 18 hrs by broth microdilution method. It counts as functional.

SMILES strings stand for the structures. Converted amounts (≈) assume the structure as drawn. The source made the active and inactive calls. The calls are words filed in the database; no cut-off is given here.

For the molecule `CN[C@H](CC(C)C)C(=O)N[C@H]1C(=O)N[C@@H](CC(N)=O)C(=O)N[C@H]2C(=O)N[C@H]3C(=O)N[C@H](C(=O)N[C@H](C(=O)O)c4cc(O)cc(O)c4-c4cc3ccc4O)[C@H](O)c3ccc(c(Cl)c3)Oc3cc2cc(c3O[C@@H]2O[C@H](CO)[C@@H](O)[C@H](O)[C@H]2O[C@H]2C[C@](C)(N)[C@H](O)[C@H](C)O2)Oc2ccc(cc2Cl)[C@H]1O` [VANCOMYCIN], the MIC against Staphylococcus aureus [1] stood at 128 µM (≈ 186 µg/mL); in the series on Staphylococcus aureus [4], 0.5 µM (≈ 0.725 µg/mL); against Staphylococcus aureus [5] it was 0.5 µM (≈ 0.725 µg/mL); with Escherichia coli [7], 128 µM (≈ 186 µg/mL); in the series on Staphylococcus aureus [8], 0.5 µM (≈ 0.725 µg/mL); in the series on Escherichia coli [9], 64 µM (≈ 92.8 µg/mL). Further, the MIC in the series on Staphylococcus aureus [12] worked out at 0.5 µM (≈ 0.725 µg/mL); with Staphylococcus aureus [14] it was 0.5 µM (≈ 0.725 µg/mL); in the series on Staphylococcus aureus [17], 64 µM (≈ 92.8 µg/mL); against Escherichia coli [18] it was 64 µM (≈ 92.8 µg/mL); in the series on Staphylococcus aureus [19], 0.5 µM (≈ 0.725 µg/mL). The Activity result in series [2], in [3] and in series [6] was “Toxic” each time. For the same molecule, the outcome in the series with Staphylococcus aureus [10], with Staphylococcus aureus [11], in the series with Staphylococcus aureus [13] and in the series on Staphylococcus aureus [16] was Active. In addition, the result with Staphylococcus aureus [15] was inactive.

(Values after ChEMBL document CHEMBL5543109, “Novel β-Hairpin Antimicrobial Peptide Containing the β-Turn Sequence of -NG- and the Tryptophan Zippers Facilitate Self-Assembly into Nanofibers, Exhibiting Excellent Antimicrobial Performance” (J Med Chem, 2024).)
